What was measured:
Format in all cases: cell-based
Erwinia amylovora = assay: Photodynamic inactivation of Erwinia amylovora grown in liquid medium, CFU counted on plates; details: Table 1
Method: E. amylovora is grown in liquid medium. Samples are incubated for 30 min with 100 μM of Mg-Chlorophyllin with or without 5 mM of Disodium-EDTA, and then illuminated with 395 nm (fluence 26.6 J cm^−2) for 30 mins. CFU of the bacteria is counted on the plates.
In the experiment, E. amylovora were grown in liquid medium. Samples were incubated for 30 min with 100 μM of Mg-Chlorophyllin with or without Chelators, and then illuminated with 395 nm (fluence 26.6 J cm^−2) for 30 mins. CFU of the bacteria was counted on the plates.

Sclerotinia homoeocarpa [1] = assay: Radial growth of dollar spot fungus after treatment of plugs in PBS (24 well plates), dark vs light; details: for inhibition at 500 µM: Clarireedia homoeocarpa
Method: In this example, control of dollar spot fungus (Sclerotinia homoeocarpa) with chlorins combined with a chelating agent was assessed. Treatments were prepared in Phosphate Buffered Saline (PBS) in 24 well plates (in duplicates for light vs. dark incubation) at desired concentrations. Then, a 5 mm diameter plug of a Sclerotinia homoeocarpa isolate (3 isolates total tested) was inoculated into the PBS and incubated at 21° C. in the dark for 2 hours. After 2 hours, one of the 24 well plates (with isolates in triplicate) is left in the dark and one 24 well plate is placed under illumination for 1 hour (all at 21° C.). Following illumination, fungal plugs are removed from PBS, blotted dry on sterile filter paper and transferred to non-amended Potato Dextrose Agar (PDA). Radial growth of the fungus is monitored daily until the growth of S. homoeocarpa reaches the edge of the Petri-dish. Illumination is provided by LED lights emitting about 1000 μmol/m^2/s photosynthetically active radiation (PAR). In this example, control of dollar spot fungus (Sclerotinia homoeocarpa) with Zinc Protoporphyrin IX (Zn-PPIX) combined with EDTA was assessed. Treatments were prepared in Phosphate Buffered Saline (PBS) in 24 well plates (in duplicates for light vs. dark incubation) at desired concentrations. Then, a 5 mm diameter plug of a Sclerotinia homoeocarpa isolate (3 isolates total tested) was inoculated into the PBS and incubated at 21° C. in the dark for 2 hours. After 2 hours, one of the 24 well plates (with isolates in triplicate) is left in the dark and one 24 well plate is placed under illumination for 1 hour (all at 21° C.). Following illumination, fungal plugs are removed from PBS, blotted dry on sterile filter paper and transferred to non-amended Potato Dextrose Agar (PDA). Radial growth of the fungus is monitored daily until the growth of S. homoeocarpa reaches the edge of the Petri-dish. Illumination is provided by LED lights emitting about 1000 μmol/m^2/s photosynthetically active radiation (PAR). In this example, control of dollar spot fungus (Sclerotinia homoeocarpa) with bacteriochlorin combined with EDTA was assessed. Treatments were prepared in Phosphate Buffered Saline (PBS) in 24 well plates (in duplicates for light vs. dark incubation) at desired concentrations. Then, a 5 mm diameter plug of a Sclerotinia homoeocarpa isolate (3 isolates total tested) was inoculated into the PBS and incubated at 21° C. in the dark for 2 hours. After 2 hours, one of the 24 well plates (with isolates in triplicate) is left in the dark and one 24 well plate is placed under illumination for 1 hour (all at 21° C.). Following illumination, fungal plugs are removed from PBS, blotted dry on sterile filter paper and transferred to non-amended Potato Dextrose Agar (PDA). Radial growth of the fungus is monitored daily until the growth of S. homoeocarpa reaches the edge of the Petri-dish. Illumination is provided by LED lights emitting about 1000 μmol/m^2/s photosynthetically active radiation (PAR). In this example, control of dollar spot fungus (Sclerotinia homoeocarpa) with Aluminum chlorin e6 combined with EDTA was assessed. Treatments were prepared in Phosphate Buffered Saline (PBS) in 24 well plates (in duplicates for light vs. dark incubation) at desired concentrations. Then, a 5 mm diameter plug of a Sclerotinia homoeocarpa isolate (3 isolates total tested) was inoculated into the PBS and incubated at 21° C. in the dark for 2 hours. After 2 hours, one of the 24 well plates (with isolates in triplicate) is left in the dark and one 24 well plate is placed under illumination for 1 hour (all at 21° C.). Following illumination, fungal plugs are removed from PBS, blotted dry on sterile filter paper and transferred to non-amended Potato Dextrose Agar (PDA). Radial growth of the fungus is monitored daily until the growth of S. homoeocarpa reaches the edge of the Petri-dish. Illumination is provided by LED lights emitting about 1000 μmol/m^2/s photosynthetically active radiation (PAR). […]

Xanthomonas axonopodis = Xanthomonas axonopodis count after photodynamic treatment in liquid medium; details: Mg-Chlorophyllin alone; same protocol as Example 1
Method: Xanthomonas axonopodis are bacterial pathogens that cause citrus canker. Citrus canker is a highly contagious plant disease than can destroy an entire crop field. […] Positive results were obtained at several chlorophyllin concentrations and exposure times.
Xanthomonas were grown in liquid medium. Samples were incubated for 30 mins or 5 mins with Mg-Chlorophyllin and with Disodium-EDTA for 30 mins, and then illuminated with 395 nm (fluence 26.6 J cm−2) for 30 mins. CFU of the bacteria was counted on the plates.

Sclerotinia homoeocarpa [2] = assay: Radial growth of dollar spot fungus on amended Potato Dextrose Agar, dark vs light; details: rate 31 μM
E. Coli K-12 = assay: E. Coli assay under LED lamps, colony count; details: light
Method: Regarding the E. Coli assay tests in the above examples, the following procedure was used: • 1. E. Coli K-12 inoculated in 5 mL TSB and placed in a shaking incubator overnight. • 2. Dilute culture in 500 mL PBS (˜10̂8 CFU/mL) and placed in shaking incubator for 30 minutes at […]. • 3.15 mL samples created using 12 mL culture and a mixture of PBS buffer and sample compounds. • 4. Placed under LED lamps for 2 hours (40 W/m^2). • 5. Samples diluted to 10^−4 and culture controls diluted to 10^−5 for plating through series dilutions. • 6. 0.1 mL plated of each sample in triplicates on TSA base (10^−3 and 10^−4 for samples. 10^−4 and 10^−5 for controls). • 7. Incubated overnight at 37° C. • 8. Colonies counted next morning and recorded.

[3] = Table 22A, dark, rate 500 μM, growth between 48 and 72 hours
[4] = Table 22B, light, rate 500 μM, growth between 48 and 72 hours

O=C(O)CN(CCN(CC(=O)O)CC(=O)O)CC(=O)O [EDTA, disodium EDTA]
Relative inactivation, CFU (Erwinia amylovora; EDTA 5 mM alone, in light): 11.1 | inhibition at 500 µM (Sclerotinia homoeocarpa [1]; Table 18A, dark, rate 500 μM): 39.8% | inhibition at 500 µM (Sclerotinia homoeocarpa [1]; Table 18B, light, rate 500 μM): 16.6% | inhibition at 500 µM (Sclerotinia homoeocarpa [1]; Table 19A, light, rate 500 μM): 36% | inhibition at 500 µM (Sclerotinia homoeocarpa [1]; Table 20A, dark, rate 500 μM): 32.8% | inhibition at 500 µM (Sclerotinia homoeocarpa [1]; Table 20B, light, rate 500 μM): 33.5% | inhibition at 500 µM (Sclerotinia homoeocarpa [1]; Table 21A, dark, rate 500 μM): 11.6% | inhibition at 500 µM (Sclerotinia homoeocarpa [1]; Table 21B, light, rate 500 μM): 15.3% | inhibition at 500 µM (Sclerotinia homoeocarpa [1]; [3]): -3.89% | inhibition at 500 µM (Sclerotinia homoeocarpa [1]; [4]): 35.2% | inhibition at 500 µM (Sclerotinia homoeocarpa [1]; Table 31A, dark, rate 500 μM): 13.6% | inhibition at 500 µM (Sclerotinia homoeocarpa [1]; Table 31B, light, rate 500 μM): 36.4% | Mean Radial Growth (Sclerotinia homoeocarpa [1]; Table 18A, dark, rate 500 μM): 6.72 mm | Mean Radial Growth (Sclerotinia homoeocarpa [1]; Table 18B, light, rate 500 μM): 9.22 mm | Mean Radial Growth (Sclerotinia homoeocarpa [1]; Table 19A, light, rate 500 μM): 7.11 mm | Mean Radial Growth (Sclerotinia homoeocarpa [1]; Table 20A, dark, rate 500 μM): 7.17 mm | Mean Radial Growth (Sclerotinia homoeocarpa [1]; Table 20B, light, rate 500 μM): 7.17 mm | Mean Radial Growth (Sclerotinia homoeocarpa [1]; Table 21A, dark, rate 500 μM): 11.06 mm | Mean Radial Growth (Sclerotinia homoeocarpa [1]; Table 21B, light, rate 500 μM): 10.78 mm | Mean Radial Growth (Sclerotinia homoeocarpa [1]; [3]): 14.83 mm | Mean Radial Growth (Sclerotinia homoeocarpa [1]; [4]): 8.89 mm | Mean Radial Growth (Sclerotinia homoeocarpa [1]; Table 31A, dark, rate 500 μM): 12.67 mm | Mean Radial Growth (Sclerotinia homoeocarpa [1]; Table 31B, light, rate 500 μM): 8.17 mm

C=Cc1c(C)c2cc3nc(c(CC(=O)[O-])c4[n-]c(cc5nc(cc1[n-]2)C(C)=C5CC)c(C)c4C(=O)[O-])C(CCC(=O)[O-])C3C.[Mg+2].[Na+].[Na+].[Na+] (stereo not shown) [Mg-Chlorophyllin, Mg-chlorophyllin]
control of Xanthomonas axonopodis (Xanthomonas axonopodis): little effect | Relative inactivation, CFU (Erwinia amylovora; Mg-Chlorophyllin 100 μM without EDTA, in light (395 nm, 30 mins)): 1.9 | % Inhibition (Sclerotinia homoeocarpa [2]; Table 7A, dark): 24.1% | Mean Radial Growth (Sclerotinia homoeocarpa [2]; Table 7A, dark): 11.2 mm | % Inhibition (Sclerotinia homoeocarpa [2]; Table 7B, light): 51.0% | Mean Radial Growth (Sclerotinia homoeocarpa [2]; Table 7B, light): 6.6 mm | % Inhibition (Sclerotinia homoeocarpa [2]; Table 14A, dark): 32.5% | Mean Radial Growth (Sclerotinia homoeocarpa [2]; Table 14A, dark): 9.1 mm | % Inhibition (Sclerotinia homoeocarpa [2]; Table 14B, light): 59.2% | Mean Radial Growth (Sclerotinia homoeocarpa [2]; Table 14B, light): 5.3 mm | % Inhibition (Sclerotinia homoeocarpa [2]; Table 15A, dark): 32.5% | Mean Radial Growth (Sclerotinia homoeocarpa [2]; Table 15A, dark): 9.1 mm | % Inhibition (Sclerotinia homoeocarpa [2]; Table 15B, light): 59.2% | Mean Radial Growth (Sclerotinia homoeocarpa [2]; Table 15B, light): 5.3 mm | % Inhibition (Sclerotinia homoeocarpa [1]; Table 18A, dark, rate 10 μM): −3.98% | Mean Radial Growth (Sclerotinia homoeocarpa [1]; Table 18A, dark, rate 10 μM): 11.61 mm | % Inhibition (Sclerotinia homoeocarpa [1]; Table 18A, dark, rate 100 μM): −11.94% | Mean Radial Growth (Sclerotinia homoeocarpa [1]; Table 18A, dark, rate 100 μM): 12.50 mm | % Inhibition (Sclerotinia homoeocarpa [1]; Table 18B, light, rate 10 μM): 31.66% | Mean Radial Growth (Sclerotinia homoeocarpa [1]; Table 18B, light, rate 10 μM): 7.56 mm | % Inhibition (Sclerotinia homoeocarpa [1]; Table 18B, light, rate 100 μM): 22.61% | Mean Radial Growth (Sclerotinia homoeocarpa [1]; Table 18B, light, rate 100 μM): 8.56 mm | % Inhibition (Sclerotinia homoeocarpa [1]; Table 25A, dark, rate 5 μM): 1.04% | Mean Radial Growth (Sclerotinia homoeocarpa [1]; Table 25A, dark, rate 5 μM): 10.56 mm | % Inhibition (Sclerotinia homoeocarpa [1]; Table 25B, light, rate 5 μM): 37.76% | Mean Radial Growth (Sclerotinia homoeocarpa [1]; Table 25B, light, rate 5 μM): 6.78 mm | % Inactivation (E. Coli K-12; Table 10, 1 μM MgChln): 95.0% | CFU/mL (E. Coli K-12; Table 10, 1 μM MgChln): 2.73E+05 CFU/mL | LogCFU/mL (E. Coli K-12; Table 10, 1 μM MgChln): 5.44 LogCFU/mL | % Inactivation (E. Coli K-12; Table 10, 10 μM MgChln): 97.6% | CFU/mL (E. Coli K-12; Table 10, 10 μM MgChln): 1.30E+05 CFU/mL | LogCFU/mL (E. Coli K-12; Table 10, 10 μM MgChln): 5.11 LogCFU/mL | % Inactivation (E. Coli K-12; Table 11, 1 μM MgChln): 86.1% | CFU/mL (E. Coli K-12; Table 11, 1 μM MgChln): 9.07E+05 CFU/mL | LogCFU/mL (E. Coli K-12; Table 11, 1 μM MgChln): 5.96 LogCFU/mL | % Inactivation (E. Coli K-12; Table 12, 1 μM MgChln): 91.3% | CFU/mL (E. Coli K-12; Table 12, 1 μM MgChln): 6.13E+05 CFU/mL | LogCFU/mL (E. Coli K-12; Table 12, 1 μM MgChln): 5.79 LogCFU/mL
